This note sets out measurements from patent US20240415804A1, “METHOD OF TREATING PANCREATIC CANCER” (University of South Florida, priority 2022, published 2024).

Structures are written as SMILES.

Holding throughout (conditions): API 40 μM, 24 h, vs DMSO vehicle
In one assay the test system is miR-155. Briefly: miR-155 gene expression by RT-qPCR in UN-KC-6141 cells. The format is cell-based, mouse. As to the method: MiR-155 is known to be overexpressed in different cancers, including PC^21, 23. The inventors first assessed whether apigenin could modulate the expression of miR-155 in PC cells. Murine PC cell lines Panc02 and UN-KC-6141 as well as the human PC cell line MiaPaCa-2 were treated with API (40 μM) or DMSO vehicle for 24 h and the expression of miR-155 was examined using RT-qPCR assay. […] Since API is known to inhibit the growth of cancer cells, including PC cells^39-43, 47-50, the same PC cell lines were treated with API (40 μM) or DMSO (vehicle) for 24 h and examined cell viability using MTT assay. […] Moreover, Panc02 and UN-KC-6141 cells were then treated with API at a dose dependent concentration (10, 20, 30, 40, 50 μM) and detected apoptosis using flow cytometry (Annexin V and PI).
miR-155 is implicated in the development of pancreatic tumors from pancreatic intraepithelial neoplasia (PanIN) lesions, and is overexpressed in PC^23. The inventors examined whether the depletion of miR-155 modulated PC viability. Murine and human PC cell lines were transfected with miR-155 inhibitor (i.e., MMU-MIR-155-5P/HSA-MIR-155-5P) and scrambled miRNA at a concentration of 100 nM for 24 h and cell viability determined using an MTT assay. The expression of miR-155 was examined using an RT-qPCR assay as well. […]
Background: Real-time PCR tracks product formation cycle by cycle.

The next assay has as its system UN-KC-6141 cells. In words: MTT cell viability assay, UN-KC-6141. The format is cell-based, mouse. As to the method:
(§1) The methyl thiazol tetrazolium (MTT) assay was performed as described previously^58. Briefly, MiaPaCa-2, Panc02 and UN-KC-6141 cells were seeded in 96-well plates at a density of 3000 cells/well and allowed to attach overnight. PC cells were then treated with API (40 μM) or DMSO (1%) as vehicle control for 24 h at 37° C. in 5% CO2 incubator. After 24 h, media was replaced with 20 μL of MTT (1 mg/mL) (Sigma-Aldrich) and incubated for 3 h at 37° C. in 5% CO2. MTT was replaced with DMSO, and absorbance was read at 570 nm.
(§2) MiaPaCa-2, Panc02 and UN-KC-6141 cells (2×10^5) were grown in 2 mL of growth medium in a 6-well tissue culture plate for 18-24 h until 60-80% confluency. The following solutions were prepared: Solution A) For each transfection, diluted 1 μL of miRNA-155 inhibitors (1 μM) (Table 2) or scrambled negative control miRNA (1 μM) (Qiagen, Germantown, MD, USA) into 50 μL Opti-MEM Transfection Medium (Invitrogen, Waltham, MA, USA). Solution B) For each transfection, diluted 3 μL of Hi-Perfect Transfection Reagent into 50 μL Opti-MEM Transfection Medium. Solution A was added directly to Solution B, mixed gently and the mixture incubated for 10-15 min at room temperature. […]

Another assay deals with MiaPaCa-2 cells. Briefly: MTT cell viability assay, MiaPaCa-2. The format is cell-based, human. As to the method: as §1, §2
On the technique in general: Formazan colour is commonly taken as a measure of viable cells.

Consider `O=c1cc(-c2ccc(O)cc2)oc2cc(O)cc(O)c12` [API, 40,5,7-Trihydroxyflavone, 5,7-Dihydroxy-2-(4-hydroxyphenyl)-4-benzopyrone], for which the miR-155 gene expression entry with miR-155 was “significantly suppressed”. For the same molecule, the “cell viability (MTT)” value with UN-KC-6141 cells and in the assay on MiaPaCa-2 cells was “significantly inhibited” in each case.
